Data from the Bradley open melting point set (2014).

melting point | SMILES
138 °C | Cc1ccc(C(=O)c2ccccc2C(=O)O)cc1 [2-(4-toluoyl)benzoic acid]
176 °C | Cc1ccc(O)c(-c2ccno2)c1 [2-(5-isoxazolyl)-4-methylphenol]
-20 °C | NCc1ccccn1 [2-(aminomethyl)pyridine]
173 °C | CC(C)(C)OC(=O)Nc1ccc(C#N)cn1 [2-(boc-amino)-5-cyanopyridine]
83 °C | O=C(CBr)c1ccc2ccccc2c1 [2-(bromoacetyl)naphthalene]
206 °C | O=C(O)c1ccccc1N=Nc1ccc(O)cc1 [2-(p-hydroxyphenylazo)benzoic acid]
117 °C | C(#Cc1ccc2ccccc2c1)c1ccccc1 [2-(phenylethynyl)naphthalene]
55 °C | CC(=O)c1ccc2ccccc2c1 [2-Acetylnaphthalene]
30 °C | CC(C)(N)CO [2-Amino-2-methylpropan-1-ol]
111 °C | CC(N)(CO)CO [2-Amino-2-methylpropane-1,3-diol]
143 °C | N#Cc1c(N)sc2c1CCCC2 [2-Amino-4,5,6,7-tetrahydrobenzo(b)thiophene-3-carbonitrile]
11 °C | NCCO [2-Aminoethanol]
107 °C | CC12CCC(C(C(c3ccccc3)c3ccccc3)C1=O)C2(C)C (stereo unspecified) [2-Bornanone, 3-(diphenylmethyl)-]
140 °C | O=C(O)c1ccccc1Cl [2-Chlorobenzoic acid]
109 °C | CCc1ccc2c(c1)C(=O)c1ccccc1C2=O [2-Ethylanthraquinone]
-60 °C | CCC1CO1 (stereo unspecified) [2-Ethyloxirane]

melting point | SMILES
-34.6 °C | Nc1ccccc1F [2-Fluoroaniline]
192 °C | O=C1C=C(O)C(=O)c2ccccc21 [2-Hydroxy-1,4-naphthoquinone]
149 °C | O=C(O)Cc1ccccc1O [2-Hydroxyphenylacetic acid]
-90 °C | CC(C)I [2-Iodopropane]
-109 °C | COC(C)(C)C [2-Methoxy-2-methylpropane]
118 °C | COc1ccc([N+](=O)[O-])cc1N [2-Methoxy-5-nitroaniline]
129 °C | Cc1cc(O)ccc1O [2-Methylbenzene-1,4-diol]
-137 °C | C=C(C)CC [2-Methylbut-1-ene]
-135 °C | C/C(C)=CCC [2-Methylpent-2-ene]
-7 °C | CCCCCCCCCCCCCC(C)C [2-Methylpentadecane]
31 °C | O=[N+]([O-])c1ccco1 [2-Nitrofuran]
12 °C | CC(=O)C(=O)O [2-Oxopropanoic acid]
167 °C | C1=C(c2ccccc2)Cc2ccccc21 [2-Phenylindene]
116 °C | O/N=C(/C=C/c1ccccc1)c1ccccc1 [2-Propen-1-one, 1,3-diphenyl-, oxime, (E,Z)-]
-75 °C | CCCOCCO [2-Propoxyethanol]
236 °C | O=S(=O)([O-])CCN1CC[NH+](CCO)CC1 [2-[4-(2-Hydroxyethyl)piperazin-4-ium-1-yl]ethanesulfonate]

SMILES | melting point
CNCC(O)c1ccccc1 (stereo unspecified) [2-(Methylamino)-1-phenylethanol] | 75 °C
O=C(CBr)c1cccs1 [2-(bromoacetyl)thiophene] | 31 °C
CP(=O)(O)CC[C@@H](N)C(=O)O [2-Amino-4-(Hydroxymethyl-Phosphinyl)Butanoic Acid] | 230 °C
CCCCOCCO [2-Butoxyethanol] | -75 °C
Nc1ccc([N+](=O)[O-])cc1Cl [2-Chloro-4-nitroaniline] | 108 °C
O=Cc1ccco1 [2-Furaldehyde] | -36 °C
Nc1ccccc1[N+](=O)[O-] [2-Nitroaniline] | 72 °C
O=[N+]([O-])c1ccccc1O [2-Nitrophenol] | 44 °C
CCCC(C)(COC(N)=O)COC(N)=O [2-[(Carbamoyloxy)methyl]-2-methylpentyl carbamate] | 105 °C
